# Reference: US20180318383A1, “PEPTIDE HAVING NEURONAL LOSS PREVENTION AND REGENERATION EFFECTS, AND COMPOSITION CONTAINING SAME” (GEMVAX & KAEL CO., LTD., priority 2015, published 2018)
# Experiments:
# DCX = DCX expression in 3XTg-AD mice (western blotting, immunostaining); assay type: in vivo; details: hippocampus and whole brain; s.c. three times a week for two months; vs control and Donepezil, same amount
# Description: (§1) To test the efficacy of PEP1 on AD, AD transgenic mice (3XTg-AD) were purchased from Jackson Laboratory. Genetic characteristics of the transgenic mice are as follows: B6; 129-Psen1tm1Mpm Tg(APPSwe, tauP301L)1Lfa/Mmjax. […] One week after mice were confirmed as pregnant, new mice were delivered and weaned for 3 weeks. Two weeks later, mature mice were obtained.
# (§2) During the preliminary breeding and the entire period of the experiment, a temperature was maintained at 23±2° C. and a relative humidity was maintained at 60±10%, and then the mice were raised under a 12-hour dark/light cycle. Experimental animals were divided into five groups, and each group included 10 animals. The divided experimental groups are as follows. […]
# (§3) The PEP1, physiological saline, donepezil and scramble peptide were subcutaneously injected at each concentration three times a week for two months from the age of 12 months, and then two months after the injection, cognitive/memory behavior tests (passive avoidance test and Y maze test) were performed to examine a degree of improvement in cognitive function and memory function. After the brain was extracted to separate the hippocampus, the amounts of amyloid beta in the hippocampus and the whole brain, and the amounts of an amyloid beta oligomer and NFT generated by tau hyperphosphorylation were determined by western blotting and immunostaining. […]
# [1] = Cell-free ROS production (DHBA level by HPLC); details: 20 μM Aβ25-35 and PEP1 0, 1, 10, 50 μM
# Description: To investigate how Aβ25-30 and PEP1 influenced ROS, a DHBA level was measured and observed by a cell-free method. This method was carried out by observing the DHBA level in a tube containing 20 μM Aβ25-30 and each concentration of PEP1 (0, 1, 10 or 50 μM) through HPLC.
# NSCs [2] = test: ATP assay; assay type: cell-based, rat; details: 20 μM Aβ25-35 + PEP1
# Source text: An ATP concentration was observed using an ATP determination kit and evaluated by an ELISA reader.
# NSCs [3] = test: Mitochondria cell membrane potential (JC-1); assay type: cell-based, rat; details: 20 μM Aβ25-35 + PEP1 1, 10, 50 μM, 48 hours
# Description: NSCs were plated in a 96-well plate at a density of 5×10^5 cells/well. The cells were treated with 20 μM Aβ25-30 and each concentration of PEP1 (1, 10 or 50 μM) at 37° C. for 48 hours.
# The mitochondria cell membrane potential was measured using a JC-1 mitochondria cell membrane potential observation kit. The mitochondria cell membrane potential was observed using an ELISA reader. […] By observing dead cells or unhealthy cells at an FITC wavelength, it was confirmed that JC-1 is in a monomer state.
# [4] = numerous clinical trials targeting various diseases; cited from earlier work
# GFAP = GFAP expression in 3XTg-AD mice (western blotting); assay type: in vivo; details: hippocampus and whole brain; s.c. three times a week for two months; vs control and Donepezil, same amount
# Description: as §1, §2, §3
# NSCs [5] = test: Cell migration assay (QCM-24-well kit); assay type: cell-based, rat; details: 20 μM Aβ25-35 + PEP1 1, 10, 50 μM
# Description: A cell migration assay was carried out using a QCM-24-well cell migration kit. Briefly, 20 μM Aβ25-30 and each concentration of PEP1 (1, 10 or 50 μM) were added to a lower chamber, and 3×10^5 NSCs were cultured in an upper chamber at 37° C. for 24 hours. NSCs migrated toward the membrane, and after staining to observe the number of migrating cells, absorbance was measured at 560 nm.
sequence,measurement,setting,value
"EARPALLTSRLRFIPK (homo sapiens) [PEP1, hTERT-derived peptide consisting of 16 amino acids, telomerase location [611-626]]",DCX,DCX,increased
same,ROS production under a cell-free condition,[1],did not exhibit a significant influence
same,ATP level,NSCs [2],significantly restored
same,mitochondria cell membrane potential,NSCs [3],restored the cell membrane potential up to a level in a normal range
same,toxicity / side effects,[4],stable in terms of side effects
same,GFAP,GFAP,reduced
same,migration ability of NSCs,NSCs [5],effectively restored migration
